Literature values as cited in US20070191228A1, “Natural herbicide” (priority 2005, published 2007).

Legend:
[1] = tested on: sorghum (Sorghhum bicolor (L.)); settings: Owens 1973
[2] = tested on: large crabgrass (Digitaria sanguimalis); settings: Owens 1973

## N[C@H](CO)CO/C=C/[C@H](N)C(=O)O [Rhizobitoxine, rhizobitoxine]
[1]
  herbicidal activity: herbicidal
[2]
  herbicidal activity: herbicidal
